Results reported in publication PMC7486406, “A flavin-dependent monooxygenase catalyzes the initial step in cyanogenic glycoside synthesis in ferns” (Communications Biology, 2020).

B1: Pteridium aquilinum fern oxime synthase 1 (PaqFOS1), recombinant with N-terminal 6xHis tag (enzyme, UniProt A0A7H1KPE2 1-543, looked up)
chain: MAPNVPSAMYTTCLPERTALQEKLSGDRAALAARVCIVGAGVTGLCACKHLLQHGVESVVLEMQTGVGGVWRNTFSSTKLQTPRDAFQYSDFLWPPGTPRLPSHAQVLDYLESYARKFQVLERIVFNCRVLEVRRLDLEGPPPVSAFQKLPANAKWAVRVQQGSADLTQLDAEWLYFEYVLVCVGHYGDIAKTPKFAVPSKGPQAFHGKVLHSLDYSKLDEAATKKLLTGKRVIVVGSRKSALDAVMEASNSNRGPDGKPVTLLFRTPHWVIAHHFFYGIPMSYMTSRFSQLLVPQPGGGSTLHDIISAALSPLRWALSKALEFYLLSTLPLAEHGFVPNQNIFEEFKSCKLTLLPEHFFDYVKEGHIKLQKTSTWCFSSNGVTLPNGDELEADVIILCTGYEGERKIKSLLGTSFEDILQENDSSIPLYRGVLPPRIPNMAILGFQESYSNLFSAEMSARWVAYWIAGKIALPNKEIMEMEAYKWLRNTKPFMTINDKTCVNTTALQLADQMCRDMGWNSRRKKSLLQEIFAPYGNMDYKDE
notes: identical to the 543 aa ORF of Pa22758 except for a single amino acid substitution; calculated mass 62.5 kDa; codon optimized for E. coli; No removal of the His tag is described; also called Paq18302; Paq18302 FMO
B2: Arabidopsis thaliana flavin-dependent monooxygenase 1 (AtFMO1), recombinant with upstream 6xHis tag (enzyme, A. thaliana, UniProt Q9LMA1 1-530, looked up)
chain: MASNYDKLTSSRVAIIGAGVSGLAAAKNLVHHNPTVFEASDSVGGVWRSCTYETTKLQSARVDYEFSDFPWPNNRDDTTFPPYLEILDYLESYAKHFDLLKFMKFGSKVIEVRFIGDGETPQMVDLGAYGNLLPGKPVWEVAVQIGDSGDIQWHAFEFVVVCTGKYGDVPRIPAFPAKKGPEMFQGKVMHSMDYCKLEKEEASTLLSGKKVAVIGFKKSAIDLALESALANQGEGGKACTMVVRTTHWGIPHYWVWGLPFFLFYSSRASQFLHDRPNQSFLRTLFCLLFSLLRAVVSKFIESYVLWKLPLEKYGLKPNHSFEEDYASCQMAIIPENFFEEADKGMIRFKKSSKWWFYEEGIVFEDGTTLEADVVILATGYDGKKKLKAIVPEPFRTWLEFPSGVMPLYRGTIHPLIPNMGFVGYVQSSSNLHTSELRSMWLSRLVDEKFRLPSKEKMLDQFLKEMEVTRNSSRFYKRHCISTFSIQHADDMCNDMGLNPWRKSNFLLEAFSPYGSQDYRLGQEEKEDMTA
notes: AtFMO1 from Arabidopsis thaliana (Q9LMA1), codon optimized for E. coli; The methods describe the isolation for PaqFOS1 only; AtFMO1 is said to have been expressed and isolated in parallel; source: E. coli BL21(DE3)-R3, pET-30a(+), expressed and isolated in parallel to PaqFOS1

Experiments:
PaqFOS1 [1] = biological target: T1, PaqFOS1 (Pteridium aquilinum, UniProt A0A7H1KPE2); test: absorbance spectrometry; SEC monitored at […] nm; assay type: binding; conditions: cofactor of the isolated protein; 50 mM HEPES pH 7.5, 150 mM NaCl, 0.5 mM TCEP
T1 construct: gene FOS1; full-length, N-terminal 6xHis, codon-optimised, pET-30a(+), E. coli BL21(DE3)-R3; methods print contig as Paq18305

PaqFOS1 [2] = biological target: T1, PaqFOS1; test: absorbance spectrometry; SEC monitored at […] nm; assay type: binding; conditions: cofactor of the isolated protein; 50 mM HEPES pH 7.5, 150 mM NaCl, 0.5 mM TCEP; remark: listed apart in the source
[3] = biological target: the molecule itself; test: SEC; HiLoad 16/60 Superdex 200 calibrated with a high molecular weight kit (43 to 669 kDa); 50 mM HEPES pH 7.5, 150 mM NaCl, 0.5 mM TCEP; after His-Trap purification; self-association (dimer)

Row | Molecule | stoichiometry N [3] | further results
1 | NC(=O)C1=CN([C@@H]2O[C@H](COP(=O)(O)OP(=O)(O)OC[C@H]3O[C@@H](n4cnc5c(N)ncnc54)[C@H](OP(=O)(O)O)[C@@H]3O)[C@@H](O)[C@H]2O)C=CC1 [NADPH] | – | absorbance spectrometry; SEC monitored at 254 nm (PaqFOS1 [1]): The isolated PaqFOS1 protein binds the cofactors FAD and NADPH as demonstrated by absorbance spectrometry
2 | Cc1cc2nc3c(=O)[nH]c(=O)nc-3n(C[C@H](O)[C@H](O)[C@H](O)COP(=O)(O)OP(=O)(O)OC[C@H]3O[C@@H](n4cnc5c(N)ncnc54)[C@H](O)[C@@H]3O)c2cc1C [FAD] | – | absorbance spectrometry; SEC monitored at 450 nm (PaqFOS1 [2]): The isolated PaqFOS1 protein binds the cofactors FAD and NADPH as demonstrated by absorbance spectrometry
3 | B1 | 2 | –
4 | B2 | 2 | –
